Assay results as given in US20250000903A1, “EXPANSION PROCESSES AND AGENTS FOR TUMOR INFILTRATING LYMPHOCYTES” (Iovance Biotherapeutics, Inc., priority 2021, published 2025).

Columns and labels:
Assay type in all cases: cell-based, human
[1] = tested on: tumor-infiltrating lymphocytes (TIL); test: Phenotypic characteristics of final TIL product expanded with AKTi; conditions: AKTi 1 μM
Method: (§1) Patient tumors from different indications were received, fragmented, and subjected to an expansion protocol for TIL manufacturing. Different doses (0.3 μM and 1 μM) of the pan-AKT inhibitor (AKTi) ipatasertib were added to the culture during ex vivo expansion. The expansion potential, as well as the phenotypic and functional characteristics of TIL were evaluated on the final TIL product.

[2] = tested on: tumor-infiltrating lymphocytes (TIL); test: TIL ex vivo expansion with AKTi ipatasertib: expansion and viability; conditions: AKTi 1 μM during ex vivo expansion
Method: as §1

[3] = tested on: tumor-infiltrating lymphocytes (TIL); test: Functional characteristics of final TIL product expanded with AKTi; conditions: AKTi treatment during ex vivo expansion
Method: as §1

In the case of `CC(C)NC[C@@H](C(=O)N1CCN(c2ncnc3c2[C@H](C)C[C@H]3O)CC1)c1ccc(Cl)cc1` [AKTi, ipatasertib], the “expression of CD38 and the transcription factors T-bet and Tox” value ([1]; CD39-CD69- cells) is reported as “reduced”, the “population of less differentiated CD39-CD69- cells” value ([1]; present even after re-stimulation) is reported as “doubled” and the “expansion of TIL relative to control” value [2] is reported as “equivalent”. The “viability of TIL relative to control” value [2] was “equivalent”, the cytotoxicity [3] was “increased” and the “frequency of IFNγ+TNFα+CD8+ T cells” value [3] was “increase”.
